One series has as its target T1, D/D domain of RIIα (Homo sapiens, UniProt P13861).
T1 construct: ^15N-isotopically enriched RIIα(1-44)
Briefly: 1H,15N-HSQC NMR binding experiment with 15N-labeled D/D domain. To be noted: result in words; 100 µM 15N-labeled D/D domain, 300 µM compound. The procedure:
For an estimate of binding specificity, the compounds were tested in a second NMR assay for binding to the D/D domain of RIIα. The D/D domain contains the AKAP binding site of RIIα. Therefore, suitable small molecule mimetics of the RIIBD of AKAP18 must bind to this domain of the full length protein. In other words, binding to the D/D domain is a good initial test for an AKAP-like, specific interaction of the compounds with RIIα.
For this purpose HSQC-experiments with ^15N-labeled D/D domain were employed with the compounds depicted in table 3. The results obtained correspond to the results from the STD experiments. […] In Fig. 5, HSQC-spectra of the D/D domain in presence and absence of 25b are depicted.
^1H,^15N-Heteronuclear Single Quantum Coherence (HSQC)-NMR)
^1H,^15N-HSQC-NMR experiments were carried on a 600 MHz spectrometer at 300 K.
^1H,^15N-correlation experiments using with ^15N-isotopically enriched RIIα(1-44) were recorded using a standard HSQC pulse program or an HMQC-SOFAST pulse program, both employing WATERGATE for solvent suppression.
The protein concentration employed for binding studies was in the order of 0.1 mM. The concentration of compounds was 0.3 mM for compounds and 0.8 mM for peptides, respectively. Experiments were performed in NMR buffer containing 5% d6-DMSO. Each step was followed by recording of a new spectrum. The acquisition time in the direct dimension was restricted to 150 ms. A total of 256 increments was recorded in the indirect dimension. [formula]

The target in the next series is T2, full length RIIα-His (Homo sapiens, UniProt P13861).
T2 construct: 20 µM unlabelled PKA-RIIα FL(1-404)-His; His (C)
T2 sequence (P13861 whole entry): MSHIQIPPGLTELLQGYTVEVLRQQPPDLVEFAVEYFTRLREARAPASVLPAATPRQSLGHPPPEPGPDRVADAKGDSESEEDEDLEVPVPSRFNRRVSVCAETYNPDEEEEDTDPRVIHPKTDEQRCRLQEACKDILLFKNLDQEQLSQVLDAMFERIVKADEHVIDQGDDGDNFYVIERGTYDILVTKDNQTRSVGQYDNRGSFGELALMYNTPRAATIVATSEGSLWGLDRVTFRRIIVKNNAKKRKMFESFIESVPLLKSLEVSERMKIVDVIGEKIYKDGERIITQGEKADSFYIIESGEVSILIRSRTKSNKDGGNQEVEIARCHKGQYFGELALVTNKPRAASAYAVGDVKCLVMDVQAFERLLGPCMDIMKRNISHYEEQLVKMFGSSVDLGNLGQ
Kind of series: saturation transfer difference (STD) NMR binding experiment. To be noted: result in words; reduction in ligand peak intensity indicates binding. The procedure: (§1) The compounds were tested first in a saturation transfer difference (STD) NMR experiment. For the STD experiments with the compounds depicted in table 1 full length RIIα-His was used as the target protein. Prior to measurements of STD spectra in the presence of the target protein, the same set of experiments was performed in the absence of protein in order to confirm that no saturation of the compound signals takes place when irradiating the sample at the frequency chosen for protein irradiation. […] Table 2: Qualitative results from STD and HSQC experiments with the indicated compounds.
Saturation transfer difference nuclear magnetic resonance (STD-NMR)
(§2) NMR samples for STD-NMR contained 0.1 mM of the indicated compound in NMR buffer, with a final concentration of d6-DMSO of 2%. Samples were measured in presence or absence of 20 µM unlabelled PKA-RIIα FL(1-404)-His.
STD-NMR experiments were recorded with the carrier frequency set to -1000 (around -1 ppm) for on-resonance irradiation and about 330 ppm for off-resonance irradiation. A train of 50 Gaussian-shaped pulses at 40 ms was applied, each separated by a 1-ms delay, for a total duration of 2.05 s, to achieve selective protein saturation. Spectra acquisition was done with 32 scans in absence of protein and 256 scans in presence of protein and a relaxation delay of 1.3 s. A T1ρ spin lock pulse of 40 ms was used to suppress the background protein signals. The STD spectrum was obtained from the internal subtraction of the on-resonance from the off-resonance data by phase cycling.

Series [1] in a line: behaviour of the compound in the STD-NMR sample solution. The series is classed as physicochemical. To be noted: 0.1 mM in NMR buffer, 2% d6-DMSO; no ligand peaks measurable by NMR. The procedure:
as §1
In Fig. 4, the STD-spectra of a binding compound (25b) and a non-binding compound (14b) are depicted.
as §2

For the next series, the system named is AKAP18α-PKA interaction. To be noted: inhibition of AKAP18α-PKA interaction; cited from earlier work.

Entries after “also recorded” stand apart in the source; their conditions may differ.

T1 sequence (P13861 1-44): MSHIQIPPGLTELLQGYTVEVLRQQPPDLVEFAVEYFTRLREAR

For `Cc1cc(-c2nc(CCCNCc3ccccc3)cc3c2CCC3)cnc1-c1cc(CCC(=O)O)cnc1C(N)=O` [14c], the “change in chemical shift of D/D domain signals upon addition of compound” value (from here on “change in chemical shift”) at D/D domain of RIIα is on record as “no perturbation of chemical shifts”. In addition, on full length RIIα-His, the “binding of the compounds to RIIα in STD experiments” value (“binding of the compounds to RIIα” for short) is recorded as “No binding was detected”.
In the case of `Cc1c(-c2nc(CCCN(Cc3ccccc3)Cc3ccccc3)cc3c2CCC3)cnc(-c2cc(CCC(=O)O)cnc2C(N)=O)c1C` [25a, 3-[6-carbamoyl-5-[5-[3-[3-(dibenzylamino)propyl]-6,7-dihydro-5H-cyclopenta[c]pyridin-1-yl]-3,4-dimethyl-2-pyridyl]-3-pyridyl]propanoic acid], the “binding of the compounds to RIIα” value on full length RIIα-His was “reduction in ligand peak intensity”.
As for `CCOC(=O)CCc1cnc(C#N)c(-c2ncc(-c3nc(CCCN(Cc4ccccc4)Cc4ccccc4)cc4c3CCC4)c(C)c2C)c1` [22a, Ethyl 3-(6-cyano-5-(5-(3-(3-(dibenzylamino)propyl)-6,7-dihydro-5H-cyclopenta[c]pyridin-1-yl)-3,4-dimethylpyridin-2-yl)pyridine-3-yl)propanoate], in series [1], the “solubility in the STD-NMR sample” value is “precipitated from solution; also recorded: crystallized from the solution”.
On to `Cc1cc(-c2nc(CCCN(Cc3ccccc3)Cc3ccccc3)cc3c2CCC3)cnc1-c1cc(CCC(=O)O)cnc1C(N)=O` [25b, 3-[6-carbamoyl-5-[5-[3-[3-(dibenzylamino)propyl]-6,7-dihydro-5H-cyclopenta[c]pyridin-1-yl]-3-methyl-2-pyridyl]-3-pyridyl]propanoic acid], for which the “change in chemical shift” value at D/D domain of RIIα is reported as “change in chemical shift of D/D domain signals was observed”. Besides, the “binding of the compounds to RIIα” value on full length RIIα-His is recorded as “reduction in ligand peak intensity”.
As to “PEDAELVRLSKRLVENAVEKAVQQY (SEQ ID 01) [AKAP18δ-L314E]”, the IC50 entry in the series on AKAP18α-PKA interaction was “low nanomolar range”.
Take `CCOC(=O)CCc1cnc(C#N)c(-c2ncccc2C)c1` [compound 27]: the “change in chemical shift” value on D/D domain of RIIα was “no perturbation of chemical shifts”. Further, the “binding of the compounds to RIIα” value at full length RIIα-His was “No binding was detected”.
The like results for `Cc1cc(-c2nc(CCCN)cc3c2CCC3)cnc1-c1cc(CCC(=O)O)cnc1C(N)=O` [14b] were, in that order, “no perturbation of chemical shifts” and “No binding was detected”.

The values above are taken from patent EP2529738A1, “Substituted terpyridines” (Max-Delbrück-Centrum für Molekulare Medizin, priority 2011, dated 2012).
